A word on the pKa: it is the negative logarithm of the acid dissociation constant.

Structures are written as SMILES.

From US12331264B2, “Lipid nanoparticles for delivery of nucleic acids and methods of use thereof” (Akagera Medicines, Inc., priority 2020, dated 2025) come the findings set out here.

A short description of series [1]: Apparent pKa of ionizable lipid in LNP by TNS fluorescence. To be noted: pH 3, probe TNS (2-(p-toluidino)-6-naphthalene sulfonic acid).
Description: (§1) Using 1 M sodium hydroxide and 1 M hydrochloric acid, ˜20 unique buffers from the master buffer stock are prepared at different pH values between about 3 and 12. 300 mM 6-(p-Toluidino)-2-naphthalenesulfonic acid sodium salt (TNS reagent) solubilized in dimethyl sulfoxide (DMSO) is used as a stock. LNP are prepared and purified into the desired pH buffer with a final mRNA concentration of 0.04 mg/mL. Using a 96-well plate, preloaded with desired buffers, mRNA containing LNP are added to so that the final concentration of mRNA is 0.7 μg/mL. To each well, TNS is added so that the DMSO concentration is 1% (v/v). After mixing, the fluorescence of TNS in each well is measured (Ex/Em 331 nm/445 nm) and a sigmoidal best fit analysis is applied to the fluorescence data. The pKa is determined as the pH giving rise to half-maximal fluorescence intensity.
The nature of series [2]: Accelerated oxidation of ICLs with H2O2/Fe(III)Cl, UHPLC-CAD. To be noted: for % of parent lipid peak at time 0, 24 h / % of parent lipid peak at time 0, 48 h / % of parent lipid peak at time 0, 72 h: Table 14, ICL lipid suspensions, 1% H2O2/100 μM Fe(III)Cl, 37° C.; for degradation: after 48 hours of incubation with hydrogen peroxide. The series is classed as physicochemical. Here is the method: Individual lipid stocks (10 mM) were prepared in ethanol and stored at −20° C. […] Liposomal formulations based on AKG-UO-1 and O-11769 ionizable cationic lipids (Table 12) were prepared by combining lipid mixtures of desired composition in 1 mL ethanol with 3 mL 6.25 mM sodium acetate, pH 5.0 at 6 mL/min on a NanoAssemblr (Precision Nanosystems). 3.6 mL of the mixture was retained, while the initial 0.35 mL of the mixture and final 0.05 mL were discarded. Ethanol was removed by buffer exchange into PBS, pH 7.4 by concentrating each liposome preparation using an Aminon-Ultra 4 centrifugal concentrator at 500 g for 10 min at 4° C. and diluting back to the original volume with PBS. This cycle was repeated multiple times until the ethanol concentration was <1%. Finally, liposomes were sterile filtered through 0.2 μm PES (Nalgene) syringe filters and size measured by a ZetaSizer (Malvern).
Aliquots of the liposomal formulations were stored at −80° C. and thawed before the experiment. A combined stock in water of 10% H2O2 (Sigma-Aldrich, cat #H1009) and 1 mM of Fe(III)Cl (Sigma-Aldrich, cat #372870) was freshly prepared prior to the treatment. To make 1% final concentration of H2O2 and 100 μM Fe(III)Cl, 10 μl of 10% H2O2/1 mM Fe(III)Cl stock was added to 90 μl of both liposomal formulations and individual lipids The liposomes and individual lipids were incubated with H2O2/Fe(III)Cl at 37° C. and then 5 μl from each sample was taken at different time points (0, 3, 24, 48 and 72 hours) and dissolved in 90 μl of MeOH for HPLC analysis. Degradation of the main lipid peak was analyzed using Thermo Scientific Vanquish Flex UHPLC occupied with Charged Aerosol Detector (CAD) and Thermo Scientific Accucore™ C18+ UHPLC column (L=50 mm, D=2.1 mm, Particle Size=1.5 μm).
The data are presented as a percentage of the main lipid peak measured at different time points relative to the lipid peak measured at time zero.

Series [3] can be described thus: physchem. The conditions noted are these: pH 3.
Description: as §1

Consider `CCCCC/C=C\CCCC/C=C\CCCCCC1(CCCCC/C=C\CCCC/C=C\CCCCC)OCC(CCCN(C)C)O1` (stereo not drawn) [Compound 3], for which the pKa in series [1] was 6 to 7.

As for `CCCCC/C=C\C/C=C\CCCCCCCCC1(CCCCCCCC/C=C\C/C=C\CCCCC)OCC(CCCN(C)C)O1` (stereo not drawn) [KC3, Dlin-KC3-DMA], in series [2], the “% of parent lipid peak at time 0, 24 h” value was 46 ± 1.8%; the “% of parent lipid peak at time 0, 48 h” value was 1 ± 0.2%; the “% of parent lipid peak at time 0, 72 h” value is 0 ± 0.0%; the “degradation” value is listed as “fully degraded”.

`CCC/C=C\CCCC/C=C\CCCCC(=O)OC[C@H](CCN(C)C)OC(=O)CCCC/C=C\CCCC/C=C\CCC` [Compound 23]: the pKa in series [1] is 6 to 7.

For `CC/C=C\CCCC/C=C\CCCCCCCC(=O)OC[C@H](CCN(CC)CC)OC(=O)CCCCCCC/C=C\CCCC/C=C\CC` [Compound 19], in series [1], the pKa lay within 6 to 7.

In the case of `CCCCCC/C=C\CCSSCCCCC1(CCCCSSCC/C=C\CCCCCC)OCC(CCN(C)C)O1` (stereo not drawn) [Compound 30], in series [1], the pKa was 6 to 7.

`CCCCCC/C=C\CCSSCCCCC(CCCCSSCC/C=C\CCCCCC)OC(=O)CCCN(C)C` [Compound 32]: in series [1], the pKa was 6 to 7.

Turning to `CCCCC/C=C\C/C=C\CCCCCCCC(=O)OC[C@H](CCN(C)C)OC(=O)CCCCCCC/C=C\C/C=C\CCCCC` [Compound O-11769], in series [2], the “% of parent lipid peak at time 0, 24 h” value is 31 ± 0.9%; the “% of parent lipid peak at time 0, 48 h” value was 1 ± 0.2%; the “% of parent lipid peak at time 0, 72 h” value turned out to be 0.3 ± 0.1%; the “degradation” value is “fully degraded”.

On to `CCC/C=C\CCCC/C=C\CCCCCC1(CCCCC/C=C\CCCC/C=C\CCC)OCC(CCN(CC)CC)O1` (stereo not drawn) [Compound 7], for which, in series [1], the pKa was 6 to 7.

In the case of `CCCCCCCC/C=C\CCSSCCCCC(CCCCSSCC/C=C\CCCCCCCC)OC(=O)CCCN(C)C` [Compound 31], the pKa in series [1] fell in the range of 6 to 7.

`CC(C)CCC[C@@H](C)[C@H]1CCC2[C@@H]3CC=C4CC(SSCCCCN(C)C)CC[C@]4(C)[C@H]3CC[C@@]21C` (stereo partly drawn) [Compound 36] showed a pKa in series [3] of 6 to 7.

Take `CCCCCC/C=C\CCCCCCCCC1(CCCCCCCC/C=C\CCCCCC)OCC(CCN(C)C)O1` (stereo not drawn) [Compound 4]: the pKa in series [1] was 6 to 7.

As to `CCCCC/C=C\CCCC/C=C\CCCCCC1(CCCCC/C=C\CCCC/C=C\CCCCC)OCC(CCN(CC)CC)O1` (stereo not drawn) [Compound 6], in series [1], the pKa lay within 6 to 7.

Regarding `CCC/C=C\CCCC/C=C\CCCCC(=O)OC[C@H](COP(=O)(OC)OCCCN(C)C)OC(=O)CCCC/C=C\CCCC/C=C\CCC` (stereo partly drawn) [Compound 26], the pKa in series [1] lay in the range of 6 to 7.

In the case of `CCC/C=C\CCCC/C=C\CCCCC(=O)OC[C@H](COP(=O)(OC)OCCCCN(C)C)OC(=O)CCCC/C=C\CCCC/C=C\CCC` (stereo partly drawn) [Compound 28], the pKa in series [1] lay within 6 to 7.

As for `CC/C=C\CCCC/C=C\CCCCCCCC(=O)OC[C@H](CCCN(C)C)OC(=O)CCCCCCC/C=C\CCCC/C=C\CC` [Compound 18], the pKa in series [1] lay in the range of 6 to 7.

`CC/C=C\CCCC/C=C\CCCCCCCC(=O)OC[C@H](COP(=O)(OC)OCCCN(CC)CC)OC(=O)CCCCCCC/C=C\CCCC/C=C\CC` (stereo partly drawn) [Compound 21]: in series [1], the pKa is 6 to 7.

For the molecule `CC/C=C\CCCC/C=C\CCCCCCCCC(CCCCCCCC/C=C\CCCC/C=C\CC)OC(=O)CCCN(C)C` [Compound 10], the pKa in series [1] was in the range of 6 to 7.

Regarding `CC/C=C\CCCC/C=C\CCCCCCCCC1(CCCCCCCC/C=C\CCCC/C=C\CC)OCC(CCN(C)C)O1` (stereo not drawn) [Compound 2], in series [1], the pKa lay in the range of 6 to 7.

For `CCC/C=C\CCCC/C=C\CCCCCC1(CCCCC/C=C\CCCC/C=C\CCC)OCC(CCN(C)C)O1` (stereo not drawn) [Compound 5], the pKa in series [1] lay in the range of 6 to 7.

Turning to `CCC/C=C\CCCC/C=C\CCCCC(=O)OC[C@H](CCN(CC)CC)OC(=O)CCCC/C=C\CCCC/C=C\CCC` [Compound 24], the pKa in series [1] was in the range of 6 to 7.

As for `CC(C)CCC[C@@H](C)[C@H]1CCC2[C@@H]3CC=C4CC(SSCCCN(C)C)CC[C@]4(C)[C@H]3CC[C@@]21C` (stereo partly drawn) [Compound 35], in series [3], the pKa fell in the range of 6 to 7.

In the case of `CCC/C=C\CCCC/C=C\CCCCCC(CCCCC/C=C\CCCC/C=C\CCC)OC(=O)CCCCN(C)C` [Compound 15], the pKa in series [1] fell in the range of 6 to 7.

Turning to `CC/C=C\CCCC/C=C\CCCCCCCC(=O)OC[C@H](CCN(C)C)OC(=O)CCCCCCC/C=C\CCCC/C=C\CC` [Compound 17], the pKa in series [1] was 6 to 7.

Regarding `CCC/C=C\CCCC/C=C\CCCCCC1(CCCCC/C=C\CCCC/C=C\CCC)OCC(CCCN(C)C)O1` (stereo not drawn) [Compound 8], the pKa in series [1] fell in the range of 6 to 7.

`CCCCCC/C=C\CCCCCCCCC(CCCCCCCC/C=C\CCCCCC)OC(=O)CCCN(C)C` [Compound 13]: in series [1], the pKa fell in the range of 6 to 7.

As for `CCCCC/C=C\CCCC/C=C\CCCCCC(CCCCC/C=C\CCCC/C=C\CCCCC)OC(=O)CCCN(C)C` [Compound 9], in series [1], the pKa is 6 to 7.

For the molecule `CCCCC/C=C\CCCC/C=C\CCCCCC1(CCCCC/C=C\CCCC/C=C\CCCCC)OC[C@H](CCCN(C)C)O1` [KC3-01, 3-((S)-2,2-di((6Z,12Z)-octadeca-6,12-dien-1-yl)-1,3-dioxolan-4-yl)-N,N-dimethylpropan-1-amine], in series [2], the “% of parent lipid peak at time 0, 24 h” value amounted to 83 ± 4.3%; the “% of parent lipid peak at time 0, 48 h” value turned out to be 80 ± 0.4%; the “% of parent lipid peak at time 0, 72 h” value amounted to 74 ± 2.2%.

With `CCCCC/C=C\CCCC/C=C\CCCCCC(CCCCC/C=C\CCCC/C=C\CCCCC)OC(=O)CCCCN(C)C` [Compound 12], the pKa in series [1] lay within 6 to 7.

With `CCCCCCCC/C=C\CCSSCCCCC1(CCCCSSCC/C=C\CCCCCCCC)OCC(CCN(C)C)O1` (stereo not drawn) [Compound 29], the pKa in series [1] was 6 to 7.

For `CC/C=C\CCCC/C=C\CCCCCCCC(=O)OC[C@H](COP(=O)(OC)OCCCN(C)C)OC(=O)CCCCCCC/C=C\CCCC/C=C\CC` (stereo partly drawn) [Compound 20], the pKa in series [1] lay within 6 to 7.

Consider `CCCCC/C=C\CCCC/C=C\CCCCCC(CCCCC/C=C\CCCC/C=C\CCCCC)OC(=O)CCCN(CC)CC` [Compound 11], for which the pKa in series [1] lay within 6 to 7.

For the molecule `CCCCC/C=C\CCCC/C=C\CCCCC(=O)OC[C@H](CCN(C)C)OC(=O)CCCC/C=C\CCCC/C=C\CCCCC` [UO-1], in series [2], the “% of parent lipid peak at time 0, 24 h” value was 78 ± 0.6%; the “% of parent lipid peak at time 0, 48 h” value is reported as 74 ± 0.1%; the “% of parent lipid peak at time 0, 72 h” value is 65 ± 2.5%.

As to `CCC/C=C\CCCC/C=C\CCCCCC(CCCCC/C=C\CCCC/C=C\CCC)OC(=O)CCCN(CC)CC` [Compound 16], the pKa in series [1] fell in the range of 6 to 7.

`CCCCC/C=C\CCCC/C=C\CCCCCC1(CCCCC/C=C\CCCC/C=C\CCCCC)OC[C@H](CCN(C)C)O1` [KC2-01, 2-((S)-2,2-di((6Z,12Z)-octadeca-6,12-dien-1-yl)-1,3-dioxolan-4-yl)-N,N-dimethylethan-1-amine]: in series [2], the “% of parent lipid peak at time 0, 24 h” value turned out to be 91 ± 0.3%; the “% of parent lipid peak at time 0, 48 h” value came out at 87 ± 0.9%; the “% of parent lipid peak at time 0, 72 h” value was determined as 83 ± 0.3%.

For `CCCCCCCC/C=C\CCSSCCCC(=O)OC[C@H](CCN(C)C)OC(=O)CCCSSCC/C=C\CCCCCCCC` [Compound 33], the pKa in series [1] was in the range of 6 to 7.

In the case of `CCC/C=C\CCCC/C=C\CCCCC(=O)OC[C@H](COP(=O)(OC)OCCCN(CC)CC)OC(=O)CCCC/C=C\CCCC/C=C\CCC` (stereo partly drawn) [Compound 27], the pKa in series [1] is 6 to 7.

As for `CCC/C=C\CCCC/C=C\CCCCCC(CCCCC/C=C\CCCC/C=C\CCC)OC(=O)CCCN(C)C` [Compound 14], in series [1], the pKa was in the range of 6 to 7.

For `CCCCC/C=C\C/C=C\CCCCCCCCC1(CCCCCCCC/C=C\C/C=C\CCCCC)OCC(CCN(C)C)O1` (stereo not drawn) [KC2, DLin-KC2-DMA], in series [2], the “% of parent lipid peak at time 0, 24 h” value amounted to 35 ± 0.7%; the “% of parent lipid peak at time 0, 48 h” value is reported as 6 ± 1.9%; the “% of parent lipid peak at time 0, 72 h” value came out at 0 ± 0.0%; the “degradation” value is “fully degraded”.

For the molecule `CCCCC/C=C\CCCC/C=C\CCCCCC1(CCCCC/C=C\CCCC/C=C\CCCCC)OCC(CCN(C)C)O1` (stereo not drawn) [Compound 1], in series [1], the pKa was in the range of 6 to 7.

Consider `CC/C=C\CCCC/C=C\CCCCCCCC(=O)OC[C@H](COP(=O)(OC)OCCCCN(C)C)OC(=O)CCCCCCC/C=C\CCCC/C=C\CC` (stereo partly drawn) [Compound 22], for which the pKa in series [1] was 6 to 7.

On to `CCCCCC/C=C\CCSSCCCC(=O)OC[C@H](CCN(C)C)OC(=O)CCCSSCC/C=C\CCCCCC` [Compound 34], for which, in series [1], the pKa fell in the range of 6 to 7.

`CCC/C=C\CCCC/C=C\CCCCC(=O)OC[C@H](CCCN(C)C)OC(=O)CCCC/C=C\CCCC/C=C\CCC` [Compound 25]: the pKa in series [1] fell in the range of 6 to 7.
